The assay deals with Protein farnesyltransferase (Homo sapiens, UniProt P49354+P49356). Nature of the assay: Inhibitory activity against K-Ras farnesyl transferase. Type of assay: protein-complex assay.

Regarding `N#Cc1ccc(Cn2cnnc2CN(Cc2ccc(F)cc2)C(=O)c2ccc3ccccc3n2)cc1`, it took 5 nM to reach half-maximal inhibition (IC50). With `N#Cc1ccc(Cn2cnnc2CN(Cc2ccc(F)cc2F)C(=O)c2ccc3ccccc3c2)cc1` the figure was 2.2 nM; with `N#Cc1ccc(Cn2cnnc2CN(Cc2ccc([N+](=O)[O-])cc2)C(=O)c2ccc3ccccc3n2)cc1`, 1.6 nM. The result for `N#Cc1ccc(Cn2cnnc2CN(CCc2ccc(Br)cc2)C(=O)c2ccc3ccccc3c2)cc1` reads 28.3 nM; that for `COc1ccc(CCN(Cc2nncn2Cc2ccc(C#N)cc2)C(=O)c2ccc3ccccc3n2)cc1`, 75 nM; that for `N#Cc1ccc(Cn2nnnc2CN(Cc2ccc(F)cc2F)C(=O)c2ccc3ccccc3n2)cc1`, greater than 1000 nM. The result for `N#Cc1ccc(Cn2cnnc2CN(Cc2ccc(F)cc2F)C(=O)c2ccc3ccccc3n2)cc1` reads 3.5 nM; that for `N#Cc1ccc(Cn2cnnc2CN(CCc2ccc(Br)cc2)C(=O)c2ccco2)cc1`, 99.3 nM. `N#Cc1ccc(Cn2cnnc2CN(CCc2ccc(Br)cc2)C(=O)c2ccc3ccccc3n2)cc1` returned a 50% inhibitory concentration (IC50) of 26 nM. For the compound `N#Cc1ccc(Cn2cnnc2CN(Cc2ccc(F)cc2F)C(=O)c2ccc3ccccc3n2)nc1`, half-maximal inhibition (IC50) was put at 5.5 nM. With `COc1cc(C(=O)N(CCc2ccc(Br)cc2)Cc2nncn2Cc2ccc(C#N)cc2)nc2ccccc12`, the midpoint of inhibition, the IC50, lay at 96.5 nM. For the compound `N#Cc1ccc(Cn2cnnc2CN(CCc2ccc(F)cc2)C(=O)c2ccc3ccccc3n2)cc1`, the half-maximal inhibitory concentration (IC50) came out at 19 nM. The result for `Cc1nnc(CN(Cc2ccc(F)cc2F)C(=O)c2ccc3ccccc3n2)n1Cc1ccc(C#N)cc1` reads 0.9 nM; that for `N#Cc1ccc(Cn2cnnc2CN(CCc2ccc(Br)cc2)C(=O)c2ccc3c(c2)OCO3)cc1`, 61 nM; that for `N#Cc1ccc(Cn2cnnc2CN(CCc2ccc(Br)cc2)C(=O)c2cc3ccccc3o2)cc1`, 53.2 nM. Consider `N#Cc1ccc(Cn2cnnc2CN(CCc2ccc(Br)cc2)C(=O)c2cc3ccccc3s2)cc1`, for which the half-inhibitory concentration (IC50) turned out to be 89.3 nM. On to `N#Cc1ccc(Cn2cnnc2CN(C(=O)c2ccc3ccccc3n2)c2ccc(Oc3ccccc3)cc2)cc1`, for which the IC50 came out at 44 nM. Turning to `N#Cc1ccc(Cn2cncc2CN(Cc2ccc(F)cc2F)C(=O)c2ccc3ccccc3n2)cc1`, it took 187 nM to reach half-maximal inhibition (IC50).

One may read the IC50 as the concentration at which inhibition is half-maximal.

Source of the values: ChEMBL document CHEMBL1141966, “Novel triazole based inhibitors of Ras farnesyl transferase” (Bioorg Med Chem Lett, 2005).
